According to US9150545B2, “Carboxamide compounds and their use as calpain inhibitors V” (ABBVIE DEUTSCHLAND GMBH & CO. KG, priority 2012, dated 2015):
Structures can show the parent of a compound that is named as a salt.

Biological target: T1, calpain-I isolated from human erythrocytes (Homo sapiens, UniProt P07384)
T1 construct: calpain-I—isolated from human erythrocytes (Calbiochem #208713); purchased Calbiochem 208713; host or cells: human erythrocytes (native tissue isolate)
T1 sequence (P07384 1-714): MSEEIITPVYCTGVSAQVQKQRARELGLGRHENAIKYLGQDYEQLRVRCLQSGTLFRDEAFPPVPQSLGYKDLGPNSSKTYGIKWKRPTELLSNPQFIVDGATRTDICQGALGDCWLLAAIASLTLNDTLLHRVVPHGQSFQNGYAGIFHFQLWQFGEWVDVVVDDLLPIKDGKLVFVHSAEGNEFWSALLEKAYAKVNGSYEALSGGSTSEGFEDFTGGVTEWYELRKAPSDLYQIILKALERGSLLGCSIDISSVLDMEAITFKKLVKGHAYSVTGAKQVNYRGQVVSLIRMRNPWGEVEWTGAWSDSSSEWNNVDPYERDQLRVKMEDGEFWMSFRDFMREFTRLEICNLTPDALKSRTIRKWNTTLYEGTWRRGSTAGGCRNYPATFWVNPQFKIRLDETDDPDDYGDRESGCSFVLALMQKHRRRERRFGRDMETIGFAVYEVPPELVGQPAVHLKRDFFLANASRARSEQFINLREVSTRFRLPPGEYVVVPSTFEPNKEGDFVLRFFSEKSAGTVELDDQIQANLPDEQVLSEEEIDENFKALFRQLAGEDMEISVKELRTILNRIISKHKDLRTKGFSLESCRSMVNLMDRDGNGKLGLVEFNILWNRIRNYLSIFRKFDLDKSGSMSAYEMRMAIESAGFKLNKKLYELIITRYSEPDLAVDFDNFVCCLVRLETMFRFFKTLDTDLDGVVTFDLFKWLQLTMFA
T1 sequence (P04632 1-268 partner): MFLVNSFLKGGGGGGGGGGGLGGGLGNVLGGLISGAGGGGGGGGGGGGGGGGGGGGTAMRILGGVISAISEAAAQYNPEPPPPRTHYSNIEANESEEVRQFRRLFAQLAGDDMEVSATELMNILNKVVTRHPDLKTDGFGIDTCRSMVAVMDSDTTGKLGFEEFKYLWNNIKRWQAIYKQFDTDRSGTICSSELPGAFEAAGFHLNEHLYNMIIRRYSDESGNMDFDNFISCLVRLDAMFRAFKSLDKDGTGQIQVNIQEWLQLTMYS
Experiment: Calpain I kinetic fluorescence enzyme inhibition assay
Type: biochemical
Conditions: apparent Ki from IC50 by Cheng-Prussoff
Description: Testing for blockade of the corresponding enzymic activities was carried out by means of kinetic fluorescence assays (excitation 390 nm, emission 460 nm).
Apparent Ki values were calculated from the experimentally determined IC50 values by the Cheng-Prussoff relation assuming a reversible competitive enzyme inhibition.
20 nM calpain-I—isolated from human erythrocytes (Calbiochem #208713), 100 μM Suc-Leu-Tyr-AMC (Bachem #I-1355) as substrate in buffer with 62 mM imidazole, 0.3 mM CaCl2, 0.10% CHAPS, 0.05% BSA, 1 mM DTT at pH 7.3 and room temperature.

| Structure (SMILES) | Ki [nM] |
| --- | --- |
| NC(=O)C(=O)C(Cc1ccccc1)NC(=O)c1cccnc1-n1ccc(CN2CCCCC2)n1 (centres unmarked) [Example 7, N-(4-Amino-3,4-dioxo-1-phenylbutan-2-yl)-2-(3-(piperidin-1-ylmethyl)-1H-pyrazol-1-yl)nicotinamide hydrochloride] | < 250 |
| NC(=O)C(=O)C(Cc1ccccc1)NC(=O)c1cccnc1-n1ccc(CN2CC3COCC3C2)n1 (centres unmarked) [Example 14, N-(4-Amino-3,4-dioxo-1-phenylbutan-2-yl)-2-(3-((dihydro-1H-furo[3,4-c]pyrrol-5(3H,6H,6aH)-yl)methyl)-1H-pyrazol-1-yl)nicotinamide trifluoroacetate] | < 250 |
| CCCCC(NC(=O)c1cccnc1-n1ccc(CN2Cc3ccccc3C2)n1)C(=O)C(N)=O (centres unmarked) [Example 39, N-(1-Amino-1,2-dioxoheptan-3-yl)-2-(3-(isoindolin-2-ylmethyl)-1H-pyrazol-1-yl)nicotinamide] | < 250 |
| NC(=O)C(=O)C(Cc1ccccc1)NC(=O)c1cccnc1-n1ccc(CNc2ccccc2)n1 (centres unmarked) [Example 28, N-(4-Amino-3,4-dioxo-1-phenylbutan-2-yl)-2-(3-((phenylamino)methyl)-1H-pyrazol-1-yl)nicotinamide] | < 250 |
| NC(=O)C(=O)C(Cc1ccccc1)NC(=O)c1cccnc1-n1ccc(CN2Cc3ccc(C(F)(F)F)cc3C2)n1 (centres unmarked) [Example 30, N-(4-Amino-3,4-dioxo-1-phenylbutan-2-yl)-2-(3-((5-(trifluoromethyl)isoindolin-2-yl)methyl)-1H-pyrazol-1-yl)nicotinamide trifluoroacetate] | < 250 |
| NC(=O)C(=O)C(Cc1ccccc1)NC(=O)c1cccnc1-n1cc2c(n1)CCNC2 (centres unmarked) [Example 42, N-(4-Amino-3,4-dioxo-1-phenylbutan-2-yl)-2-(4,5,6,7-tetrahydro-2H-pyrazolo[4,3-c]pyridin-2-yl)nicotinamide hydrochloride] | < 250 |
| CC(C)(C)OC(=O)N1Cc2cn(-c3ncccc3C(=O)NC(Cc3ccccc3)C(=O)C(N)=O)nc2C1 (centres unmarked) [Example 43, tert-Butyl 2-(3-(4-amino-3,4-dioxo-1-phenylbutan-2-ylcarbamoyl)pyridin-2-yl)-4,6-dihydropyrrolo[3,4-c]pyrazole-5(2H)-carboxylate] | < 250 |
| CC1CN(Cc2ccn(-c3ncccc3C(=O)NC(Cc3ccccc3)C(=O)C(N)=O)n2)CC(C)O1 (single isomer, unassigned) [Example 2a, N-(4-Amino-3,4-dioxo-1-phenylbutan-2-yl)-2-(3-((2,6-dimethylmorpholino)-methyl)-1H-pyrazol-1-yl)nicotinamide] | < 250 |
| CCN(CC)Cc1ccn(-c2ncccc2C(=O)NC(Cc2ccccc2)C(=O)C(N)=O)n1 (centres unmarked) [Example 18, N-(4-Amino-3,4-dioxo-1-phenylbutan-2-yl)-2-(3-((diethylamino)methyl)-1H-pyrazol-1-yl)nicotinamide trifluoroacetate] | 250 to 400 |
| NC(=O)C(=O)C(Cc1ccccc1)NC(=O)c1cccnc1-n1cc2c(n1)CCN(Cc1ccccc1)C2 (centres unmarked) [Example 4, N-(4-Amino-3,4-dioxo-1-phenylbutan-2-yl)-2-(5-benzyl-4,5,6,7-tetrahydro-2H-pyrazolo[4,3-c]pyridin-2-yl)nicotinamide] | < 250 |
| NC(=O)C(=O)C(Cc1ccccc1)NC(=O)c1cccnc1-n1ccc(CN2Cc3ccccc3C2=O)n1 (centres unmarked) [Example 36, N-(4-Amino-3,4-dioxo-1-phenylbutan-2-yl)-2-(3-((1-oxoisoindolin-2-yl)methyl)-1H-pyrazol-1-yl)nicotinamide] | < 250 |
| NC(=O)C(=O)C(Cc1ccccc1)NC(=O)c1cccnc1-n1ccc(CN2Cc3ccccc3C2)n1 (centres unmarked) [Example 19, N-(4-Amino-3,4-dioxo-1-phenylbutan-2-yl)-2-(3-(isoindolin-2-ylmethyl)-1H-pyrazol-1-yl)nicotinamide] | < 250 |
| CC1CCN(Cc2ccn(-c3ncccc3C(=O)NC(Cc3ccccc3)C(=O)C(N)=O)n2)CC1 (centres unmarked) [Example 24, N-(4-Amino-3,4-dioxo-1-phenylbutan-2-yl)-2-(3-((4-methylpiperidin-1-yl)methyl)-1H-pyrazol-1-yl)nicotinamide trifluoroacetate] | < 250 |
| NC(=O)C(=O)C(Cc1ccccc1)NC(=O)c1cccnc1-n1ccc(CN2CCC(c3ccccc3)CC2)n1 (centres unmarked) [Example 5, N-(4-Amino-3,4-dioxo-1-phenylbutan-2-yl)-2-(3-((4-phenylpiperidin-1-yl)methyl)-1H-pyrazol-1-yl)nicotinamide] | < 250 |
| NC(=O)C(=O)C(Cc1ccccc1)NC(=O)c1cccnc1-n1ccc(CN2CCOc3ccccc32)n1 (centres unmarked) [Example 6, 2-(3-((2H-Benzo[b][1,4]oxazin-4(3H)-yl)methyl)-1H-pyrazol-1-yl)-N-(4-amino-3,4-dioxo-1-phenylbutan-2-yl)nicotinamide] | < 250 |
| NC(=O)C(=O)C(Cc1ccccc1)NC(=O)c1cccnc1-n1cc2c(n1)CNCC2 (centres unmarked) [Example 46, N-(4-Amino-3,4-dioxo-1-phenyl-2-butanyl)-2-(4,5,6,7-tetrahydro-pyrazolo[3,4-c]pyridin-2-yl)nicotinamide hydrochloride] | < 250 |
| NC(=O)C(=O)C(Cc1ccccc1)NC(=O)c1cccnc1-n1ccc(CN2CCOC(c3ccccc3)C2)n1 (centres unmarked) [Example 9, N-(4-Amino-3,4-dioxo-1-phenylbutan-2-yl)-2-(3-((2-phenylmorpholino)methyl)-1H-pyrazol-1-yl)nicotinamide trifluoroacetate] | < 250 |
| NC(=O)C(=O)C(Cc1ccccc1)NC(=O)c1cccnc1-n1ccc(CN2Cc3cccc(F)c3C2)n1 (centres unmarked) [Example 33, N-(4-Amino-3,4-dioxo-1-phenylbutan-2-yl)-2-(3-((4-fluoroisoindolin-2-yl)methyl)-1H-pyrazol-1-yl)nicotinamide trifluoroacetate] | < 250 |
| NC(=O)C(=O)C(Cc1ccccc1)NC(=O)c1cccnc1-n1ccc(CN2CCC3(CC2)COC3)n1 (centres unmarked) [Example 17, 2-(3-(2-Oxa-7-azaspiro[3.5]nonan-7-ylmethyl)-1H-pyrazol-1-yl)-N-(4-amino-3,4-dioxo-1-phenylbutan-2-yl)nicotinamide trifluoroacetate] | < 250 |
| NC(=O)C(=O)C(Cc1ccccc1)NC(=O)c1cccnc1-n1ccc(CN2Cc3ccc(F)cc3C2)n1 (centres unmarked) [Example 31, N-(4-Amino-3,4-dioxo-1-phenylbutan-2-yl)-2-(3-((5-fluoroisoindolin-2-yl)methyl)-1H-pyrazol-1-yl)nicotinamide trifluoroacetate] | < 250 |
| CN(Cc1ccn(-c2ncccc2C(=O)NC(Cc2ccccc2)C(=O)C(N)=O)n1)C1CC1 (centres unmarked) [Example 26, N-(4-Amino-3,4-dioxo-1-phenylbutan-2-yl)-2-(3-((cyclopropyl(methyl)amino)methyl)-1H-pyrazol-1-yl)nicotinamide trifluoroacetate] | < 250 |
| CC(C)(C)OC(=O)N1CCc2cn(-c3ncccc3C(=O)NC(Cc3ccccc3)C(=O)C(N)=O)nc2C1 (centres unmarked) [Example 45, tert-Butyl 2-(3-(4-amino-3,4-dioxo-1-phenylbutan-2-ylcarbamoyl)pyridin-2-yl)-2,4,5,7-tetrahydro-6H-pyrazolo[3,4-c]pyridine-6-carboxylate] | < 250 |
| NC(=O)C(=O)C(Cc1ccccc1)NC(=O)c1cccnc1-n1ccc(CN2CCC(F)(F)CC2)n1 (centres unmarked) [Example 3, N-(4-Amino-3,4-dioxo-1-phenylbutan-2-yl)-2-(3-((4,4-difluoropiperidin-1-yl)methyl)-1H-pyrazol-1-yl)nicotinamide trifluoroacetate] | < 250 |
| CC(c1ccn(-c2ncccc2C(=O)NC(Cc2ccccc2)C(=O)C(N)=O)n1)N1Cc2ccccc2C1 (centres unmarked) [Example 35, N-(4-Amino-3,4-dioxo-1-phenylbutan-2-yl)-2-(3-(1-(isoindolin-2-yl)ethyl)-1H-pyrazol-1-yl)nicotinamide trifluoroacetate] | < 250 |
| NC(=O)C(=O)C(Cc1ccccc1)NC(=O)c1cccnc1-n1cc2c(n1)CNC2 (centres unmarked) [Example 44, N-(4-Amino-3,4-dioxo-1-phenyl-2-butanyl)-2-(5,6-dihydropyrrolo[3,4-c]pyrazol-2(4H)-yl)nicotinamide hydrochloride] | < 250 |
| NC(=O)C(=O)C(Cc1ccccc1)NC(=O)c1cccnc1-n1ccc(CN2CCC2)n1 (centres unmarked) [Example 11, N-(4-Amino-3,4-dioxo-1-phenylbutan-2-yl)-2-(3-(azetidin-1-ylmethyl)-1H-pyrazol-1-yl)nicotinamide trifluoroacetate] | 250 to 400 |
